Reference: ChEMBL document CHEMBL4406831, “Discovery of fused heterocyclic carboxamide derivatives as novel α7-nAChR agonists: Synthesis, preliminary SAR and biological evaluation” (Eur J Med Chem, 2019)
The source made the active and inactive calls. No cut-off for these calls is given here.

Key:
Format in all cases: cell-based
[1] = biological target: T1, Neuronal acetylcholine receptor subunit alpha-7 (Homo sapiens, UniProt P36544); test: Agonist activity at human alpha7 nAChR expressed in Xenopus laevis oocytes assessed as induction of channel current at 10 uM at -90 mV holding potential by two-electrode voltage clamp method relative to acetylcholine
T1 sequence (P36544 whole entry): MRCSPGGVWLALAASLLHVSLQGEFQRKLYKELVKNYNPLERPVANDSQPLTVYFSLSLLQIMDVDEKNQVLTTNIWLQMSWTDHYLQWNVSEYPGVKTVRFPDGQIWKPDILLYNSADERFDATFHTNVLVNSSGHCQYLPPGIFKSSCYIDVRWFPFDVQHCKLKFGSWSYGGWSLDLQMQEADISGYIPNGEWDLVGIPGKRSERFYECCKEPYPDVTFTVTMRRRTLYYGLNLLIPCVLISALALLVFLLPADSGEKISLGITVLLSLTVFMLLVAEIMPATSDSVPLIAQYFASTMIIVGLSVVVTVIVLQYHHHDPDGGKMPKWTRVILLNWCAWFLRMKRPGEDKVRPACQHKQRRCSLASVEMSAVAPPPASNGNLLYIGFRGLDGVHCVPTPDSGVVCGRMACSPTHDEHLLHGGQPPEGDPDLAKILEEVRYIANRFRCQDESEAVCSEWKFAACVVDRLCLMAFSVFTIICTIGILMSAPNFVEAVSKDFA

[2] = biological target: T1, Neuronal acetylcholine receptor subunit alpha-7; test: Agonist activity at human alpha7 nAChR expressed in Xenopus laevis oocytes assessed as induction of channel current at 100 uM at -90 mV holding potential by two-electrode voltage clamp method relative to acetylcholine
[3] = biological target: T1, Neuronal acetylcholine receptor subunit alpha-7; test: Agonist activity at human alpha7 nAChR expressed in Xenopus laevis oocytes assessed as induction of channel current at -90 mV holding potential by two-electrode voltage clamp method
[4] = biological target: T1, Neuronal acetylcholine receptor subunit alpha-7; test: Agonist activity at human alpha7 nAChR expressed in Xenopus laevis oocytes assessed as peak current amplitude at -90 mV holding potential by two-electrode voltage clamp method relative to acetylcholine
[5] = biological target: T1, Neuronal acetylcholine receptor subunit alpha-7; test: Agonist activity at human alpha7 nAChR expressed in Xenopus laevis oocytes assessed as increase in channel current at 10 uM at -90 mV holding potential in presence of 10 nM alpha7 nAChR antagonist, MLA measured after 10 mins by two-electrode voltage clamp method
[6] = biological target: T2, Neuronal acetylcholine receptor; alpha4/beta2 (Homo sapiens, UniProt P17787+P43681); test: Agonist activity at alpha4beta2 nAChR (unknown origin) expressed in Xenopus laevis oocytes assessed as induction of current at 10 uM at -90 mV holding potential by two-electrode voltage clamp method
T2 sequence (P17787 whole entry): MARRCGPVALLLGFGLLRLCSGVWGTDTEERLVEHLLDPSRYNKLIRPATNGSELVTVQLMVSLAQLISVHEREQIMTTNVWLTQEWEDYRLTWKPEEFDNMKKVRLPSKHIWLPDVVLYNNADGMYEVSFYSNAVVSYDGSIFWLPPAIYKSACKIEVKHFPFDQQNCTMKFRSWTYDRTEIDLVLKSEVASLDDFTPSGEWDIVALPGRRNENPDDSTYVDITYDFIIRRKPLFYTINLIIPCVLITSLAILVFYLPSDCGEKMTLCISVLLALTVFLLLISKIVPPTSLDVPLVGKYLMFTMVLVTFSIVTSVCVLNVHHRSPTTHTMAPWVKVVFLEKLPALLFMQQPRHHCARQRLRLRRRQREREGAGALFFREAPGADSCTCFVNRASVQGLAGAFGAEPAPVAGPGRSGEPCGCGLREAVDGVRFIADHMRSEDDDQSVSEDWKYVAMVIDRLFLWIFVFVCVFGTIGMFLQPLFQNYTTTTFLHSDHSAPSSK
T2 sequence (P43681 whole entry): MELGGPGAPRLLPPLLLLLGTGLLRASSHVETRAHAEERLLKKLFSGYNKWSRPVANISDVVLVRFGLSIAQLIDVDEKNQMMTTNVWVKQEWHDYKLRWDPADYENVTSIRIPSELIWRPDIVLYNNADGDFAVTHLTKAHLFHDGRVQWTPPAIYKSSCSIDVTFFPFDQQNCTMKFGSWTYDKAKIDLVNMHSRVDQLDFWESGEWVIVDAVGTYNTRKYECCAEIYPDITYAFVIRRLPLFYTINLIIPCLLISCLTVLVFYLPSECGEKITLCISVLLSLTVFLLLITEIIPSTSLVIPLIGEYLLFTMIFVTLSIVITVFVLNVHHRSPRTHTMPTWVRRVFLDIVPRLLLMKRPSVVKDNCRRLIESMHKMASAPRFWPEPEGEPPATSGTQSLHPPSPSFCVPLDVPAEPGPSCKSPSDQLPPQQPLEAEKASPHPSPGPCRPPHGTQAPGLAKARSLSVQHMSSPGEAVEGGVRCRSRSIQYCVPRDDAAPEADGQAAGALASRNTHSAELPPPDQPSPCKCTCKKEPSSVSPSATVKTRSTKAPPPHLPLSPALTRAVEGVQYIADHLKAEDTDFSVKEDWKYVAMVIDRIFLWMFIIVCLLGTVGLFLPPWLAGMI

[7] = biological target: T3, Neuronal acetylcholine receptor; alpha3/beta4 (Homo sapiens, UniProt P30926+P32297); test: Agonist activity at alpha3beta4 nAChR (unknown origin) expressed in Xenopus laevis oocytes assessed as channel current at 10 uM at -90 mV holding potential by two-electrode voltage clamp method
T3 sequence (P30926 whole entry): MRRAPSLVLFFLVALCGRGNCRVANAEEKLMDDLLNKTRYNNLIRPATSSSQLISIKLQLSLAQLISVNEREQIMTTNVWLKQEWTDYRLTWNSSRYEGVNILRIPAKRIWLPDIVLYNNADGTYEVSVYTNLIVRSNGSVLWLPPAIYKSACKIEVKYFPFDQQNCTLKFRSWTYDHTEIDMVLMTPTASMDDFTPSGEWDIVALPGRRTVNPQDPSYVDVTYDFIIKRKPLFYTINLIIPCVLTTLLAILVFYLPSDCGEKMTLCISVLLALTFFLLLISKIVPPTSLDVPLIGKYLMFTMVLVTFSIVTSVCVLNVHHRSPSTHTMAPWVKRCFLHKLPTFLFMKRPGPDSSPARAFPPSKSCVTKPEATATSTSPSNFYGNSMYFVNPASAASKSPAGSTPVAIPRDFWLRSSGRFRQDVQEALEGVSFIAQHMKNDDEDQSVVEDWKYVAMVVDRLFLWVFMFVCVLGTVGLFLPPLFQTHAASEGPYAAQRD
T3 sequence (P32297 whole entry): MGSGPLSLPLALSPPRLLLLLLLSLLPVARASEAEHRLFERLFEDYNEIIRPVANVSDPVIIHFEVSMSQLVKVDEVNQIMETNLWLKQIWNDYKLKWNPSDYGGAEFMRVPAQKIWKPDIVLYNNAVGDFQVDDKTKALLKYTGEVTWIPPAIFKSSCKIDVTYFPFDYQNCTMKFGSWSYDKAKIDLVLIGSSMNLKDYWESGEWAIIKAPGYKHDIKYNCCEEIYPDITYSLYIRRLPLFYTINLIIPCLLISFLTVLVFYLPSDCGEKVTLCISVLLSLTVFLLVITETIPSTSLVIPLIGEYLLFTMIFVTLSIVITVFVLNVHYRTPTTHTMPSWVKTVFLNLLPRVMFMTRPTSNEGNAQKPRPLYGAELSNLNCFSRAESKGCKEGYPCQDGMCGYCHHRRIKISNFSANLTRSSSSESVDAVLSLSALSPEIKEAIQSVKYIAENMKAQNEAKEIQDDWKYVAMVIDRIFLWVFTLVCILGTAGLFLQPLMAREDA

[8] = biological target: T3, Neuronal acetylcholine receptor; alpha3/beta4; test: Antagonist activity at alpha3beta4 nAChR (unknown origin) expressed in Xenopus laevis oocytes assessed as inhibition of acetylcholine-induced channel current at -90 mV holding potential by two-electrode voltage clamp method
[9] = biological target: T1, Neuronal acetylcholine receptor subunit alpha-7; test: Agonist activity at human alpha7 nAChR expressed in Xenopus laevis oocytes assessed as channel current at 10 uM at -90 mV holding potential in presence of 10 nM alpha7 nAChR antagonist, MLA by two-electrode voltage clamp method
[10] = biological target: T1, Neuronal acetylcholine receptor subunit alpha-7; test: Agonist activity at human alpha7 nAChR expressed in Xenopus laevis oocytes preincubated with 1 uM alpha7 type-2 PAM PNU-120596 at -90 mV holding potential by two-electrode voltage clamp method
[11] = biological target: T1, Neuronal acetylcholine receptor subunit alpha-7; test: Induction of desensitization at human alpha7 nAChR expressed in Xenopus laevis oocytes assessed as inhibition of acetylcholine induced current treated with compound prior to 100 uM acetylcholine challenge at -90 mV holding potential by two-electrode voltage clamp method
[12] = biological target: T4, 5-hydroxytryptamine receptor 3A (Homo sapiens) (UniProt P46098); test: (§1) Antagonist activity at human 5-HT3A receptor expressed in Xenopus laevis oocytes at -90 mV holding potential in presence of serotonin by two-electrode voltage clamp method
T4 sequence (whole entry): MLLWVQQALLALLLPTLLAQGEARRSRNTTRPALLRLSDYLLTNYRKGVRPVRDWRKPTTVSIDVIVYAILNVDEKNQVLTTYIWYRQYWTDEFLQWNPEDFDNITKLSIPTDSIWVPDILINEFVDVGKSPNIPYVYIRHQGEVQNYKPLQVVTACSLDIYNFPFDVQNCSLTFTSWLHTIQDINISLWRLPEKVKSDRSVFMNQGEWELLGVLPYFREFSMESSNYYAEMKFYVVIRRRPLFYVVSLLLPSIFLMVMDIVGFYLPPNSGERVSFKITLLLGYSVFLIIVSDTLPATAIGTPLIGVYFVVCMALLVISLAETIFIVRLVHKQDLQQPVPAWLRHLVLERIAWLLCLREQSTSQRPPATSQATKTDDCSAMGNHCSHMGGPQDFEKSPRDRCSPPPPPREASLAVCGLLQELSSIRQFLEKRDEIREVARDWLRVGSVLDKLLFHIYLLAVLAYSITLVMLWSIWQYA

[13] = biological target: T5, 5-hydroxytryptamine receptor 3A (Homo sapiens, UniProt P46098); test: as §1
T5 sequence (P46098 whole entry): T4 sequence (whole entry)

[14] = biological target: T4, 5-hydroxytryptamine receptor 3A (Homo sapiens); test: Agonist activity at human 5-HT3A receptor expressed in Xenopus laevis oocytes at 10 uM at -90 mV holding potential by two-electrode voltage clamp method
[15] = biological target: T2, Neuronal acetylcholine receptor; alpha4/beta2; test: Agonist activity at alpha4beta2 nAChR (unknown origin) expressed in Xenopus laevis oocytes at -90 mV holding potential by two-electrode voltage clamp method
[16] = biological target: T4, 5-hydroxytryptamine receptor 3A (Homo sapiens); test: Antagonist activity at human 5-HT3A receptor expressed in Xenopus laevis oocytes at 10 uM at -90 mV holding potential in presence of serotonin by two-electrode voltage clamp method
Homo sapiens [17] = organism: Homo sapiens; test: Selectivity index, ratio of EC50 for alpha4beta2 nAChR (unknown origin) expressed in Xenopus laevis oocytes to EC50 for human alpha7 nAChR expressed in Xenopus laevis oocytes
Homo sapiens [18] = organism: Homo sapiens; test: Selectivity index, ratio of IC50 for alpha3beta4 nAChR (unknown origin) expressed in Xenopus laevis oocytes to EC50 for human alpha7 nAChR expressed in Xenopus laevis oocytes
[19] = biological target: T3, Neuronal acetylcholine receptor; alpha3/beta4; test: Agonist activity at alpha3beta4 nAChR (unknown origin) expressed in Xenopus laevis oocytes assessed as induction of current at 100 uM at -90 mV holding potential by two-electrode voltage clamp method

Row | Compound | Activity [1] | Activity [2] | also measured
1 | Cc1ccc2c(ccc3cc(C(=O)N[C@H]4CN5CCC4CC5)cn32)c1 | > 120% | > 120% | EC50 [3]: 1270 nM; Emax [4]: 29.2%
2 | O=C(N[C@H]1CN2CCC1CC2)c1cc2ccc3cc(OCc4cccnc4)ccc3n2c1 | – | 60 to 120% | –
3 | CCC(CC)Oc1ccc2c(ccc3cc(C(=O)N[C@H]4CN5CCC4CC5)cn32)c1 | – | inactive | –
4 | O=C(N[C@H]1CN2CCC1CC2)c1cc2ccc3cc(-c4cccnc4)ccc3n2c1 | < 60% | 60 to 120% | –
5 | C#CCOc1ccc2c(ccc3cc(C(=O)N[C@H]4CN5CCC4CC5)cn32)c1 | 60 to 120% | – | EC50 [3]: 7630 nM; Emax [4]: 34.5%
6 | O=C(N[C@H]1CN2CCC1CC2)c1cc2ccc3ccccc3n2c1 | 60 to 120% | – | Activity [5]: Active; Activity [6]: Active; Activity [7]: inactive; IC50 [8]: 10.1 µM; Activity [9]: inactive; Activity [10]: Dose-dependent effect; EC50 [10]: 120 nM; IC50 [11]: 21.2 nM; inhibition [11]: Dose-dependent effect; inhibition [12]: Dose-dependent effect; IC50 [13]: 710 nM; Activity [14]: inactive; EC50 [3]: 1880 nM; EC50 [15]: 6.14 µM; inhibition [16]: Active; Ratio EC50 (Homo sapiens [17]): 3; Emax [4]: 72.4%; Ratio IC50/EC50 (Homo sapiens [18]): 5
7 | O=C(N[C@H]1CN2CCC1CC2)c1cc2cccc(Cl)c2s1 [ENCENICLINE] | – | – | EC50 [3]: 250 nM; Emax [4]: 27.6%
8 | O=C(N[C@H]1CN2CCC1CC2)c1cc2ccc3cc(OC(F)F)ccc3n2c1 | < 60% | 60 to 120% | –
9 | CC(C)Oc1ccc2c(ccc3cc(C(=O)N[C@H]4CN5CCC4CC5)cn32)c1 | – | inactive | –
10 | Cc1ccccc1-c1ccc2c(ccc3cc(C(=O)N[C@H]4CN5CCC4CC5)cn32)c1 | 60 to 120% | > 120% | EC50 [3]: 3200 nM; Emax [4]: 23.1%
11 | O=C(N[C@H]1CN2CCC1CC2)c1cc2ccc3cc(Cl)ccc3n2c1 | < 60% | – | –
12 | O=C(N[C@H]1CN2CCC1CC2)c1cc2ccc3cc(OC4CCC4)ccc3n2c1 | – | < 60% | –
13 | O=C(N[C@H]1CN2CCC1CC2)c1cc2ccc3cc(N4CCCC4)ccc3n2c1 | < 60% | – | –
14 | O=C(N[C@H]1CN2CCC1CC2)c1cc2ccc3cc(N4CCCCC4)ccc3n2c1 | < 60% | – | –
15 | COc1ccc2c(ccc3cc(C(=O)N[C@H]4CN5CCC4CC5)cn32)c1 | < 60% | – | –
16 | CC(=O)OCC[N+](C)(C)C | – | – | Activity [19]: Active
17 | O=C(N[C@H]1CN2CCC1CC2)c1cc2ccc3cc(C4CC4)ccc3n2c1 | < 60% | – | –
18 | C=CCOc1ccc2c(ccc3cc(C(=O)N[C@H]4CN5CCC4CC5)cn32)c1 | – | inactive | –

Row | Compound | Activity [1] | Activity [2] | also measured
19 | O=C(N[C@H]1CN2CCC1CC2)c1cc2ccc3cc(O)ccc3n2c1 | – | > 120% | EC50 [3]: 2000 nM; Emax [4]: 47.3%
20 | CC(C)COc1ccc2c(ccc3cc(C(=O)N[C@H]4CN5CCC4CC5)cn32)c1 | inactive | – | –
21 | O=C(N[C@H]1CN2CCC1CC2)c1cc2ccc3cc(OCc4ccc(F)cc4)ccc3n2c1 | – | < 60% | –
22 | O=C(N[C@H]1CN2CCC1CC2)c1cc2ccc3cc(-c4ccncc4)ccc3n2c1 | – | < 60% | –
23 | O=C(N[C@H]1CN2CCC1CC2)c1cc2ccc3cc(-c4ccccc4)ccc3n2c1 | < 60% | 60 to 120% | –
24 | O=C(N[C@H]1CN2CCC1CC2)c1cc2ccc3cc(OCc4ccccc4)ccc3n2c1 | – | < 60% | –
25 | CCCOc1ccc2c(ccc3cc(C(=O)N[C@H]4CN5CCC4CC5)cn32)c1 | < 60% | < 60% | –
26 | CCCC(C)Oc1ccc2c(ccc3cc(C(=O)N[C@H]4CN5CCC4CC5)cn32)c1 (stereo partly specified) | – | inactive | –
27 | CC(C)(C)c1ccc(-c2ccc3c(ccc4cc(C(=O)N[C@H]5CN6CCC5CC6)cn43)c2)cc1 | 60 to 120% | 60 to 120% | –
28 | O=C(N[C@H]1CN2CCC1CC2)c1cc2ccc3cc(F)ccc3n2c1 | 60 to 120% | – | EC50 [3]: 8270 nM; Emax [4]: 58.6%
29 | O=C(N[C@H]1CN2CCC1CC2)c1cc2n(c1)CCCC2 | – | < 60% | –
30 | O=C(N[C@H]1CN2CCC1CC2)c1cc2ccc3cc(C(F)(F)F)ccc3n2c1 | < 60% | – | –
31 | O=C(N[C@H]1CN2CCC1CC2)c1cc2n(c1)CCC2 | – | < 60% | –
32 | Cc1cc(-c2ccc3c(ccc4cc(C(=O)N[C@H]5CN6CCC5CC6)cn43)c2)ccn1 | – | < 60% | –
33 | O=C(N[C@H]1CN2CCC1CC2)c1cc2ccc3cc(-c4ccc(F)cc4)ccc3n2c1 | – | inactive | –
34 | O=C(N[C@H]1CN2CCC1CC2)c1cc2ccc3cc(Br)ccc3n2c1 | < 60% | – | –
35 | O=C(N[C@H]1CN2CCC1CC2)c1cc2ccc3cc(-c4ccsc4)ccc3n2c1 | – | < 60% | –
